The values that follow come from ChEMBL document CHEMBL5465560, “Selectivity Literature for EUbOPEN Chemogenomic Library” (2024).

pIC50: −log10 of the molar value.

By pIC50 is commonly meant −log10 of the IC50, conventionally taken in molar units.

The subject of assay [1] is Proto-oncogene tyrosine-protein kinase receptor Ret (Homo sapiens), P07949 [V804L]. The settings on record: at 10 µM.
The target in assay [2] is Serine/threonine-protein kinase 24 (Homo sapiens) (UniProt Q9Y6E0). Briefly: Selectivity interaction (Kinase panel (DSF assay)) EUB0001558a STK24. For orientation: Differential scanning fluorimetry follows unfolding on heating by fluorescence.
The target in assay [3] is Tyrosine-protein kinase Fer (Homo sapiens) (UniProt P16591). The note with it: at 10 µM.
Assay [4] has as its target Phosphatidylinositol 3-kinase catalytic subunit type 3 (Homo sapiens, UniProt Q8NEB9). Briefly: Selectivity interaction (KinomeScan (DiscoverX)) EUB0001079a PIK3C3. The settings on record: at 1 µM.
Assay [5] has as its target Cyclin-dependent kinase-like 3 (Homo sapiens) (UniProt Q8IVW4). Briefly: Selectivity interaction (KinomeScan (DiscoverX)) EUB0000655a CDKL3. The settings on record: at 10 µM.
Assay [6] concerns the target Phosphatidylinositol 4,5-bisphosphate 3-kinase catalytic subunit beta isoform (Homo sapiens) (UniProt P42338). The assay can be described thus: Selectivity interaction (KinomeScan (DiscoverX)) EUB0000695a PIK3CB. The settings on record: at 100 nM.
For assay [7], the target named is Mitogen-activated protein kinase 3 (Homo sapiens, UniProt P27361). The assay can be described thus: Selectivity interaction (KinomeScan (DiscoverX)) EUB0000045b MAPK3.
In assay [8] the target is T1, Ephrin type-B receptor 3 (Homo sapiens) (UniProt P54753).
T1 sequence (whole entry): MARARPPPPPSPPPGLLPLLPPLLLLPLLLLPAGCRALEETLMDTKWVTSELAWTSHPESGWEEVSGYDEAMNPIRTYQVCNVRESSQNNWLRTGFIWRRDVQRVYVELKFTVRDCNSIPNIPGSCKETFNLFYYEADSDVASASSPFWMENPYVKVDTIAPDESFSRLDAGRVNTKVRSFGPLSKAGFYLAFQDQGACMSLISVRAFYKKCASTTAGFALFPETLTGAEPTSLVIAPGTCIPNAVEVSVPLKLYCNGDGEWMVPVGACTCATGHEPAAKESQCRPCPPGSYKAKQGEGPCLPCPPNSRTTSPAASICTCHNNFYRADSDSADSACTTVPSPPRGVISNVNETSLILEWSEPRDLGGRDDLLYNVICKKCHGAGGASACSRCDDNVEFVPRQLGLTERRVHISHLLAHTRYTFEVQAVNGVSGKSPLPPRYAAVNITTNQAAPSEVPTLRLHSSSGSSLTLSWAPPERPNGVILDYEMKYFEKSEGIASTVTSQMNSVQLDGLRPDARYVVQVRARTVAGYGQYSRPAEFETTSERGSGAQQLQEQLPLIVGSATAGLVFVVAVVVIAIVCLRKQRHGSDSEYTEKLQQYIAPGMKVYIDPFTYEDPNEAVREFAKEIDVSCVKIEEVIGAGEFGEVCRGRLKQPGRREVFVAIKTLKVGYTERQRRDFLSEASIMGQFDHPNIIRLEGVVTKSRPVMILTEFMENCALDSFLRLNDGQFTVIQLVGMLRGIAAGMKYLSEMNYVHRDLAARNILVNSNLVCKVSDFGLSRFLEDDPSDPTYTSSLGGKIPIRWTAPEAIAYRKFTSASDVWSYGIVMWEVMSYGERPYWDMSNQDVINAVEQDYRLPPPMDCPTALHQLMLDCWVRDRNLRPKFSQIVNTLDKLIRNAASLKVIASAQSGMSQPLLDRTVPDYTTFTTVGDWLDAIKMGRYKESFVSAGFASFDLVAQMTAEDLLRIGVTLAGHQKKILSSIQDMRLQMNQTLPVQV
The assay can be described thus: Selectivity interaction (KinomeScan (DiscoverX)) EUB0000666a EPHB3. The note with it: at 10 µM.

Assay [9] deals with Mitogen-activated protein kinase kinase kinase 14 (Homo sapiens) (UniProt Q99558). The assay can be described thus: Selectivity interaction (LanthaScreen Eu Kinase Binding Assay) EUB0001632a MAP3K14. The settings on record: at 10 µM. On the technique in general: In TR-FRET formats the signal depends on donor and acceptor labels being close together.
The target of assay [10] is T2, Serine/threonine-protein kinase MAK (Homo sapiens) (UniProt P20794).
T2 sequence (whole entry): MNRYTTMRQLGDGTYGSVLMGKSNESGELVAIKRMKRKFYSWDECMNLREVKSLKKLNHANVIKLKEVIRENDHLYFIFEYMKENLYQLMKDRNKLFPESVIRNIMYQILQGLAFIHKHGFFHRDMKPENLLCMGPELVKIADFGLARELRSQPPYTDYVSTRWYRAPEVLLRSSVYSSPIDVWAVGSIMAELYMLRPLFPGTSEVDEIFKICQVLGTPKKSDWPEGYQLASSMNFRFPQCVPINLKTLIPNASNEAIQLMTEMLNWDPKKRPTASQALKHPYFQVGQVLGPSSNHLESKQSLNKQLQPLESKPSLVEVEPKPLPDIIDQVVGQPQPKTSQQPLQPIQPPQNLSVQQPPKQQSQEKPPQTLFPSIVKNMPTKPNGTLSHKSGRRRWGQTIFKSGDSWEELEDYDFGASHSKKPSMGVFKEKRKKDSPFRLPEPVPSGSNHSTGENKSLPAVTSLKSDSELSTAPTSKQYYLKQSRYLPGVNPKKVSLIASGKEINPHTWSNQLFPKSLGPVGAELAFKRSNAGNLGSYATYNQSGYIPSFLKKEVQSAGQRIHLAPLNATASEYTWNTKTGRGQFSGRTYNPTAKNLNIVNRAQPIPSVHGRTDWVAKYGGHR
Briefly: Selectivity interaction (KinomeScan (DiscoverX)) EUB0000607a MAK. The settings on record: at 10 µM.

Assay [11] addresses T3, Aurora kinase A (Homo sapiens) (UniProt O14965).
T3 sequence (whole entry): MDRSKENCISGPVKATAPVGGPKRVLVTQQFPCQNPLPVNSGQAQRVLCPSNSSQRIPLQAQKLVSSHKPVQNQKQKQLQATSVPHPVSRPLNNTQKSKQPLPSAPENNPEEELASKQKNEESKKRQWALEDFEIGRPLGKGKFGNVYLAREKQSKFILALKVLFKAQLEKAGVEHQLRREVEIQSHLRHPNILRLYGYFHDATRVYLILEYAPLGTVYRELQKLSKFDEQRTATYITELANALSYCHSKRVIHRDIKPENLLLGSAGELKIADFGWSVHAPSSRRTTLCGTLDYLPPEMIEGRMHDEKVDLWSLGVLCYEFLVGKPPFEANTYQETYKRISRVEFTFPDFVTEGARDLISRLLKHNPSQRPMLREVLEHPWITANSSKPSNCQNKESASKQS
The assay can be described thus: Selectivity interaction (ActivX KiNativ screen (kinase selectivity in THP-1 cell lysates)) EUB0000639a STK6. Type of assay: subcellular. The settings on record: lysate, at 0.01 µM.

Assay [12] concerns the target High affinity nerve growth factor receptor (Homo sapiens, UniProt P04629).
Assay [13] addresses Serine/threonine-protein kinase 16 (Homo sapiens, UniProt O75716). The assay can be described thus: Selectivity interaction (KinomeScan (DiscoverX)) EUB0000229b STK16. The note with it: at 10 µM.
Assay [14] deals with Calcium/calmodulin-dependent protein kinase type 1D (Homo sapiens) (UniProt Q8IU85). Briefly: Selectivity interaction (ActivX KiNativ screen (ex vivo kinase selectivity in human PBMCs)) EUB0001619a CAMK1D. In kind it is cell-based. The note with it: PBMC, at 1 µM.

Sequence of Mitogen-activated protein kinase 3 (P27361 whole entry): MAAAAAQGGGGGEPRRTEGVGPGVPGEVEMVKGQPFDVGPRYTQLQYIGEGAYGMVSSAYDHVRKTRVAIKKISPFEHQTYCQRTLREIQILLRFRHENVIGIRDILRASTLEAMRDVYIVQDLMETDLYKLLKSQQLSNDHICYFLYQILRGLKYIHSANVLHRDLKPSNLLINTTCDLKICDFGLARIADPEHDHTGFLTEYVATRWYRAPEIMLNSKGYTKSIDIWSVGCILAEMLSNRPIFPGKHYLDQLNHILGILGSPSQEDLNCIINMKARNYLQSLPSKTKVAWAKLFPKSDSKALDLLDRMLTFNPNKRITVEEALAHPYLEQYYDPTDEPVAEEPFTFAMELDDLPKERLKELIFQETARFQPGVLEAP
Sequence of Proto-oncogene tyrosine-protein kinase receptor Ret (Homo sapiens), P07949 [V804L] (P07949 whole entry V804L): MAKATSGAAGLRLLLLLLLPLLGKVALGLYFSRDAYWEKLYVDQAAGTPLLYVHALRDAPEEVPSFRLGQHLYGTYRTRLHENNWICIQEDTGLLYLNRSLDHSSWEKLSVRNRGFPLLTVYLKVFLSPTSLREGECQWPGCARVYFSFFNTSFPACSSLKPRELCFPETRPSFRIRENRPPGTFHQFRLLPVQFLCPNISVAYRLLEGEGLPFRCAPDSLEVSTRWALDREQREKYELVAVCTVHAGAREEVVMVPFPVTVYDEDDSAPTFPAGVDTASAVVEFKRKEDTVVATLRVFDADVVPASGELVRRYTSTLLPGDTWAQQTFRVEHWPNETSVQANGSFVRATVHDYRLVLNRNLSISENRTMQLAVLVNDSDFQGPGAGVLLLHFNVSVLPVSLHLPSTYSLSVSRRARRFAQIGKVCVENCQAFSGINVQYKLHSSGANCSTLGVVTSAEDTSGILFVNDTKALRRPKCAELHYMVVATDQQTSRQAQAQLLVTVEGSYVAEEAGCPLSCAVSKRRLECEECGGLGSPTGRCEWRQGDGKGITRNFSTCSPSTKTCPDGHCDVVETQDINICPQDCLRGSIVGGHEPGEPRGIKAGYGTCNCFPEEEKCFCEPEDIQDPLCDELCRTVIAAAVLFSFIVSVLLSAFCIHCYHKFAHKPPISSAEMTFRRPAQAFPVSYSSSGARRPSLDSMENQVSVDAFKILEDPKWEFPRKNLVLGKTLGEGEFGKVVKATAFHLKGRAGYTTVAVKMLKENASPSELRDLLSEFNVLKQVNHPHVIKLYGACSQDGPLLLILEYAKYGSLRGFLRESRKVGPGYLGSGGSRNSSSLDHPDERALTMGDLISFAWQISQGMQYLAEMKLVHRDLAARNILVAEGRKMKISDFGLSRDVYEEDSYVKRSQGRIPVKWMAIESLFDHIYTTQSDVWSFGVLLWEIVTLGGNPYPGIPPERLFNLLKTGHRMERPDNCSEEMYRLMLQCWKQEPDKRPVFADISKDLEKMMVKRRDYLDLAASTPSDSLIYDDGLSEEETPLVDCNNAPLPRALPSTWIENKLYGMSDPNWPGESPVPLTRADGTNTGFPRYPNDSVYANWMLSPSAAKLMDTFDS
Sequence of Serine/threonine-protein kinase 16 (O75716 whole entry): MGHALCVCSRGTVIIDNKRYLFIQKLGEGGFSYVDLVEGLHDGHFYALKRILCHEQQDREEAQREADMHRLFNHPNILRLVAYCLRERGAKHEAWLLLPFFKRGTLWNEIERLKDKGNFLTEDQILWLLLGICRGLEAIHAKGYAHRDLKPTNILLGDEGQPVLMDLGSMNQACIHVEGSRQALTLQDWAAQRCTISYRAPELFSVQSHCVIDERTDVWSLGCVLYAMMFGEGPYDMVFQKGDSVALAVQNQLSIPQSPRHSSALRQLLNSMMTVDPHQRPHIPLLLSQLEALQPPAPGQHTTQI
Sequence of High affinity nerve growth factor receptor (P04629 whole entry): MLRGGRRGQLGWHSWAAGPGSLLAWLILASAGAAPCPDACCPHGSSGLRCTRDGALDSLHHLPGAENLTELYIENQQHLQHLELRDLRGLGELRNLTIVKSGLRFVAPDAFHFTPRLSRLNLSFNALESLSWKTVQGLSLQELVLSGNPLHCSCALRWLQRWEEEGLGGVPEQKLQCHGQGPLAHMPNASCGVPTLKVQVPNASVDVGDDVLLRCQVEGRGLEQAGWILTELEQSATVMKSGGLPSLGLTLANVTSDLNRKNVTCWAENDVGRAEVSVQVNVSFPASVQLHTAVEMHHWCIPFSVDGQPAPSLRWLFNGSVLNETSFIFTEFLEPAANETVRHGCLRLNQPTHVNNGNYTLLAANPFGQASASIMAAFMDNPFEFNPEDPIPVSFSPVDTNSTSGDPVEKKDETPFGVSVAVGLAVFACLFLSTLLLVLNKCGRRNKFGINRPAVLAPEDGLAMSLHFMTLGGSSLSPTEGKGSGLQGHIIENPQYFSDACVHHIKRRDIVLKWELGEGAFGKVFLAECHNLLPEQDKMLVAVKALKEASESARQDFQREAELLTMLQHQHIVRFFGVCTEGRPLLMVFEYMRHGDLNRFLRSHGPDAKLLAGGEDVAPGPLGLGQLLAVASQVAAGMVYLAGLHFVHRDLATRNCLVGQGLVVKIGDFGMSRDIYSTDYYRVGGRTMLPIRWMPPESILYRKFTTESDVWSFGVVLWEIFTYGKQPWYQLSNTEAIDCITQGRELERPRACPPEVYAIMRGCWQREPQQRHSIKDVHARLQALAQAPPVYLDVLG
Sequence of Phosphatidylinositol 4,5-bisphosphate 3-kinase catalytic subunit beta isoform (Homo sapiens) (P42338 whole entry, looked up, canonical isoform): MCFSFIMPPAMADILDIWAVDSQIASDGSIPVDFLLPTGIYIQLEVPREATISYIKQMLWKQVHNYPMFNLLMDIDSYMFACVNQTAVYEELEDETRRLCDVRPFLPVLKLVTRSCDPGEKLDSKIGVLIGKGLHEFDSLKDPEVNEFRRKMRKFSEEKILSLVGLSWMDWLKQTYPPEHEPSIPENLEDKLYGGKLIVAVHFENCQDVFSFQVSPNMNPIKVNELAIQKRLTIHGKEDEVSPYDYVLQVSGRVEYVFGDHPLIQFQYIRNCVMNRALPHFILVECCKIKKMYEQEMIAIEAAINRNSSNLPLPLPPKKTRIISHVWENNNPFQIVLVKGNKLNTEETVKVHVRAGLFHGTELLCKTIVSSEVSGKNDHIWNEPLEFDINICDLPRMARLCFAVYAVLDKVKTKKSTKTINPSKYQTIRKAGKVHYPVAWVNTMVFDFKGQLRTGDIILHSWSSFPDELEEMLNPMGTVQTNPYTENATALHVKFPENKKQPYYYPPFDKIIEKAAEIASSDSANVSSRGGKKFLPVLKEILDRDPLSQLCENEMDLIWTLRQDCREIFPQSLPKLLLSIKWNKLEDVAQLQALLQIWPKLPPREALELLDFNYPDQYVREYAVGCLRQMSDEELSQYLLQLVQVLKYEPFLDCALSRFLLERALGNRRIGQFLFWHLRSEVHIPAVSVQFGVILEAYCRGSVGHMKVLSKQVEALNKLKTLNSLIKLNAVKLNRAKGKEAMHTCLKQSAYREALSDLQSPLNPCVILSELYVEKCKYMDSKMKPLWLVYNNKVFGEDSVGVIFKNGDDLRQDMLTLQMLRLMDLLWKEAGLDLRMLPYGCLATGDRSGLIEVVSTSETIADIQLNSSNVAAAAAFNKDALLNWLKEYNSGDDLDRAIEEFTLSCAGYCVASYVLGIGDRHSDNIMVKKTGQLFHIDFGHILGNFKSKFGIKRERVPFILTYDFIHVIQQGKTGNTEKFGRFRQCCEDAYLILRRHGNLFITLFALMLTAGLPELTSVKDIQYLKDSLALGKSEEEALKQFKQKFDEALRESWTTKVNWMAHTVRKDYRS
Sequence of Mitogen-activated protein kinase kinase kinase 14 (Homo sapiens) (Q99558 whole entry, looked up): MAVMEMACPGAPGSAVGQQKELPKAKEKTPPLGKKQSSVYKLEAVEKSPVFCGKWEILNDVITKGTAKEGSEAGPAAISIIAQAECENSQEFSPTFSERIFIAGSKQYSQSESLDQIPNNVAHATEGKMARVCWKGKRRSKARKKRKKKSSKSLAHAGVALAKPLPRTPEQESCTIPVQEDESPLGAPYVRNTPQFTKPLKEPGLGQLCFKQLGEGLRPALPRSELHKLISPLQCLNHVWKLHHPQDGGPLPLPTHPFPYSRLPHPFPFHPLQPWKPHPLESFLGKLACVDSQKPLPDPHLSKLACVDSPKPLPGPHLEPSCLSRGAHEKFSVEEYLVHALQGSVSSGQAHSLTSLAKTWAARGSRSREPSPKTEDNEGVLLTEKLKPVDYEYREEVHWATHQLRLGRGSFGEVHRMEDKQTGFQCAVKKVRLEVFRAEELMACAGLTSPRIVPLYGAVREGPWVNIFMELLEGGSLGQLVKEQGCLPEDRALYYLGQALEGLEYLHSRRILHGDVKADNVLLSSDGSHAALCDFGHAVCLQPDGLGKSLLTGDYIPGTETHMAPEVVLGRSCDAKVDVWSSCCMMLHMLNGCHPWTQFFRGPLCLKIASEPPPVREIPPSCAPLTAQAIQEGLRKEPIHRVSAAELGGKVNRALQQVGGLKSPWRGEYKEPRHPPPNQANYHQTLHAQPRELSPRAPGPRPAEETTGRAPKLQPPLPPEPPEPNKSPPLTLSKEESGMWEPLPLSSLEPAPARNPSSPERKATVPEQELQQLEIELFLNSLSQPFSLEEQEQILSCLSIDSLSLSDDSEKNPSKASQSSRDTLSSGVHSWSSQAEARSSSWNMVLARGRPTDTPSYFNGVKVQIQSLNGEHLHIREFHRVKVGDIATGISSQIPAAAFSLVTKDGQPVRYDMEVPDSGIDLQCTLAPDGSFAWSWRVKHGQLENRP
Sequence of Serine/threonine-protein kinase 24 (Homo sapiens) (Q9Y6E0 whole entry, looked up): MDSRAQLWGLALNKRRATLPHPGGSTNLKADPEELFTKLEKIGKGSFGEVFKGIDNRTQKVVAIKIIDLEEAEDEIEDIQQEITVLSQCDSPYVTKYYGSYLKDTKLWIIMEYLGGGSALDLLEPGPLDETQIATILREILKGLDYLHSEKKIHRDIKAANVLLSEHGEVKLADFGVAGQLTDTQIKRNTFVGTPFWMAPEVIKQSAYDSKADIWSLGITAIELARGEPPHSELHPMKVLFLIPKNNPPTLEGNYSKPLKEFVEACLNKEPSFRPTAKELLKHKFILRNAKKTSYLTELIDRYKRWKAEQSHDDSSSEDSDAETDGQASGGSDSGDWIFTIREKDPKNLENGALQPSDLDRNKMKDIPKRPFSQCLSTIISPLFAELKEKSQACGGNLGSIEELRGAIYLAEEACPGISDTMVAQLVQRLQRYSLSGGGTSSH

As for `Cc1cc([C@@H](C)Nc2ccccc2C(=O)O)c2nc(N3CCOCC3)cc(=O)n2c1` [AZD-6482], in [1], the % of control was found to be 99%.

Consider `CC(C)(O)[C@H](F)CN1Cc2cc(NC(=O)c3cnn4cccnc34)c(N3CCOCC3)cc2C1=O`, for which the dTM in assay [2] turned out to be 0.1 K.

Take `CCN(CC)CCCCNc1ncc2cc(-c3cc(OC)cc(OC)c3)c(NC(=O)NC(C)(C)C)nc2n1`: in assay [3], the % of control is 100%.

Regarding `Nc1cnc(N2CCc3cc(S(=O)(=O)Nc4c(F)cc(Cl)cc4F)cc(N4CCCC4=O)c32)nc1` [TP-020n], the % of control in [4] turned out to be 100%.

With `CN(C)CCOc1ccc(-c2nc(-c3ccncc3)c(-c3ccc4c(c3)CC/C4=N\O)[nH]2)cc1`, the % of control in [5] stood at 100%.

`Cc1cc(F)c(C(=O)Nc2cccc(-c3nncn3C(C)C)n2)cc1-n1cnc(C2CC2)c1` showed a % of control in [6] of 100%.

With `C=CC(=O)Nc1cc(-n2c(=O)ccc3cnc4ccc(-c5ccc(NS(C)(=O)=O)cc5)cc4c32)ccc1C`, the % of control in assay [7] (at 1 µM) was 100%; in [7] (at 10 µM), 79%.

In turn, `O=C(NOC[C@H](O)CO)c1ccc(F)c(F)c1Nc1ccc(I)cc1F` showed a % of control in assay [8] of 89%.

As to `Cn1cc(-n2cnc3c(NCc4nc5cc(Cl)c(Cl)cc5[nH]4)nc(N4CCOCC4)nc32)cn1`, in assay [9], the % of inhibition is -10.4%.

In the case of `CNC(=O)Nc1ccc(-c2nc(N3CC4CCC(C3)O4)c3cnn(C4CCC5(CC4)OCCO5)c3n2)cc1`, the % of control in [10] is 100%.

Consider `CC[C@@H]1[C@H](F)C(=O)N[C@@H]1COc1nccc2cc(C(N)=O)c(OC)cc12` [ZIMLOVISERTIB], for which the % of inhibition in [11] turned out to be 4.9%.

`CCc1cccc(CC)c1NC(=O)c1nn(C)c2c1CCc1cnc(Nc3ccc(C(=O)NC4CCN(C)CC4)cc3OC(F)(F)F)nc1-2` had a negative-log IC50 (pIC50) in assay [12] of less than 5.00.

Turning to `COc1cc(N(C)c2ccnc3ccc(C(F)(F)F)cc23)cc(OC)c1OC`, the % binding in [13] was determined as 90%.

On to `N#Cc1cccc(-c2c[nH]c3ncnc(N4CCOCC4)c23)c1`, for which the % of inhibition in [14] was 1%.
